Structures can show the parent of a compound that is named as a salt. Where two headings read alike, the source gives them in different places.

These results are taken from article PMC8621770, “New Compounds with Bioisosteric Replacement of Classic Choline Kinase Inhibitors Show Potent Antiplasmodial Activity” (Pharmaceutics, 2021).

One series has as its system P. falciparum strain 3D7. In words: Antimalarial activity, P. falciparum lactate dehydrogenase growth inhibition assay. It counts as cell-based, Plasmodium falciparum. To be noted: for fold decrease in antimalarial activity with respect to the reference compounds BR-23 / BR-25: Fg-9, Fa-21, Fg-14 vs BR-23, Ff-1, Ff-7, Ff-3 vs BR-25; for IC50: P. falciparum 3D7 in human erythrocytes, 72 h, LDH readout, read-out: IC50 a (In vitro IC50 values against P. falciparum); for fold decrease of antimalarial activity with respect to RSM932A: relative to RSM932A; for fold decrease in parasite lethality with respect to BR-31: relative to homologous BR-31. As to the method:
Parasites of the P. falciparum strain 3D7 were grown in fresh group 0 positive human erythrocytes, obtained from the Centro Regional de Transfusion Sanguínea-SAS (Granada, Spain) and suspended at 5% haematocrit in RPMI 1640 containing 2% human serum, 0.2% NaHCO3, 0.5% Albumax II, 150 μM hypoxanthine, and […] gentamicin. Flasks were incubated at 37 °C, under 5% CO2 and 95% air mixture. […] The stock culture was then diluted with complete medium and non-parasitized erythrocytes to yield a haematocrit of 2% and parasitemia of 0.25%. Stock solutions of the test drugs were prepared at an initial concentration of 200 mM in DMSO, serially diluted and dispensed into triplicate in 96-well plates to yield final concentrations ranging from 0.0039 to 2 μM. The final well volume was 200 μL with a final concentration of DMSO 0.001%. Each plate also included positive growth controls, where only medium were added, and negative growth controls with 100 nM of chloroquine. […] A multidrop dispenser was used to add 50 μL of synchronized parasite culture per well. After 72 h of growth in presence of test compounds, the plates were stored frozen at −20 °C for at least 24 h. Next, they were thawed at room temperature. Parasite growth inhibition assays and IC50 determinations were carried out following the P. falciparum lactate dehydrogenase assay where parasite viability is quantified by measuring LDH activity upon APAD+ addition, a cofactor that is specific to the Plasmodium enzyme. To evaluate LDH activity, 140 μL of freshly made reaction mix, containing 143 mM sodium L-lactate, 143 μM APAD, 178.75 μM NBT, 1 U/mL diaphorase, 0.7% Tween 20 and 100 mM Tris-HCl (pH 8.0) were dispensed into plates. After 10 min of incubation in the dark at room temperature, absorbance was measured at 630 nm with a vmax precision multiwell plate reader from Molecular Devices, by using the accompanying SOFT maxPro software for analysis.

The target in another series is T1, PfCK (Plasmodium falciparum, UniProt Q8IM71).
T1 construct: A truncated form of PfCK (Δ79-440) featuring an N-terminal 6× His-tag; 6xHis (N); host or cells: Escherichia coli BL21 (DE3) Star
In words: Spectrophotometric coupled enzymatic assay for PfCK activity (substrate choline). It counts as biochemical. Conditions: for IC50: IC50 PfCK b (compound concentration required to inhibit PfCK enzyme by 50%), substrate choline 4 mM, ATP 2 mM. The protocol: A truncated form of PfCK (Δ79-440) featuring an N-terminal 6× His-tag was purchased from Genescript (Piscataway, NJ, USA), cloned into a pET-28a vector and transformed into Escherichia coli BL21 (DE3) Star cells (Invitrogen, Carlsbad, CA, USA). The transformed bacteria were cultured in Luria-Bertani (LB) medium at 37 °C until OD600 = 0.6 and the expression was induced with 1 mM isopropyl β-D-1-thiogalactopyranoside (IPTG). The cell culture was grown overnight at 20 °C and 180 rpm. Cells were pelleted by centrifugation at 10,000 rpm, resuspended in 50 mM Tris/HCl pH 7.5, 500 mM NaCl, 0.2 mM phenylmethylsulphonyl fluoride (PMSF, Sigma Aldrich, St. Luis, MO, USA), DNase (Sigma Aldrich, St. Luis, MO, USA), 0.5 mM β-mercaptoethanol (Sigma Aldrich, St. Luis, MO, USA) and sonicated. Separation of the soluble from the insoluble fraction was obtained by centrifugation at 15,000 rpm and 4 °C. The target enzyme was purified by a two-step purification protocol. In the first step, the cell lysate was incubated for 45 min with Ni-NTA resin (Qiagen, Venlo, The Netherlands) in a gravity column. Then, the column was washed with 40 column volumes (CV) of 50 mM Tris/HCl pH 7.5, 300 mM NaCl, 10 mM imidazole and 1 CV of 50 mM Tris/HCl pH 7.5, 300 mM NaCl, 40 mM imidazole. Finally, the His-tagged enzyme was eluted from the column using a 50 mM Tris/HCl pH 7.5, 300 mM NaCl, 400 mM imidazole buffer. A subsequent size-exclusion chromatography step was implemented to further polish the sample using a HiPrep 26/60 Sephacryl 100 HR column (GE Healthcare, Little Chalfont, Buckinghamshire, UK) previously equilibrated with 20 mM Tris/HCl pH 7.5, 150 mM NaCl buffer. This second purification step afforded a pure protein sample. The protein production yield was estimated to be nearly 2.5 mg of recombinant enzyme per liter of bacterial culture.
A spectrophotometric 96-well plate assay for PfCK activity was established based on an assay previously described. The reaction mix was composed as follows: 100 mM Tris/HCl pH 7.5, 100 mM KCl, 10 mM MgCl2, 0.5 mM phosphoenolpyruvate, 0.25 mM NADH, 4 U of pyruvate kinase, 5 U lactate dehydrogenase, 2 mM ATP, 4 mM choline chloride and different concentrations of the selected compounds. All the necessary compounds for the assay were purchased from Sigma Aldrich (St. Luis, MO, USA) and the final assay volume was 200 μL. The enzymatic reaction was initiated by the addition of the enzyme at less than 10 nM concentration and the reaction rates were measured by monitoring the decrease in the absorbance at 340 nm for 20 min at room temperature using a Spark10M instrument (Tecan). Finally, the IC50 values for each compound were determined by plotting the enzyme fractional activity (f.a.) against the logarithm of compound concentration (log[I]). Curve-fitting was performed with a dose-response curve from Origin (OriginLab Corporation, Northampton, MA, USA), using the following equation: f.a.=1/1+10^logIC50−logI
All data points were collected in triplicate and the final dose-response curves were plotted with MATLAB (R2018a (9.4.0.813654), 2018, MathWorks, Natick, MA, USA). See curves in Figure S1 in Supplementary Materials.

The mark [1] stands for this setting: Plasmodium falciparum, Erythrocyte.
The mark [2] stands for this setting: read-out: PfCK Fractional Activity at 25 µM.

T1 sequence (Q8IM71 entry or part of it): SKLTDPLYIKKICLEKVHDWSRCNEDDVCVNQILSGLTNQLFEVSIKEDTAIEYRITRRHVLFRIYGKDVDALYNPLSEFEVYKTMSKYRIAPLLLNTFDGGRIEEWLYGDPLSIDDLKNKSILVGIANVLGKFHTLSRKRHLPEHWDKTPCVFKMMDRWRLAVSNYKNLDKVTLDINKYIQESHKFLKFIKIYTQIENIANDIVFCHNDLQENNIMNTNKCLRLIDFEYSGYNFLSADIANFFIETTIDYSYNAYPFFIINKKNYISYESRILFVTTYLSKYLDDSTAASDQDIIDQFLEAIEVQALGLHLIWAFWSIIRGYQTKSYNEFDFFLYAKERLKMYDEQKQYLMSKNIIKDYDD

On to `[Br-].[Br-].c1cc2c(N3CCCCC3)nc[n+](Cc3ccc(CCCCc4ccc(C[n+]5cnc(N6CCCCC6)c6ccsc65)cc4)cc3)c2s1`, for which the melting point (usually the temperature of the solid-liquid transition) was in the range of 282 to 284 °C.
As for `c1cc2c(s1)c(N1CCCCCC1)cc[n+]2Cc1ccc(-c2ccc(C[n+]3ccc(N4CCCCCC4)c4sccc43)cc2)cc1` (as salt: bromide) [Fg-10, 1,1’-([1,1’-biphenyl]-4,4’-diylbis(methylene))bis(7-(azepan-1-yl)thieno[3,2-b]pyridin-4-ium) bromide], the melting point lay in the range of 220 to 222 °C.
In turn, `[Br-].[Br-].c1cc2c(s1)c(N1CCCC1)nc[n+]2Cc1ccc(-c2ccc(C[n+]3cnc(N4CCCC4)c4sccc43)cc2)cc1` [Fa-21, 1,1’-([1,1’-biphenyl]-4,4’-diylbis(methylene))bis(4-(pyrrolidin-1-yl)thieno[3,2-d]pyrimidin-1-ium) bromide] came in with a melting point of 312 to 315 °C. In addition, in the series with P. falciparum strain 3D7, the “fold decrease in antimalarial activity with respect to the reference compounds BR-23 / BR-25” value is 10 fold. In addition, the IC50 (in general, the point on the concentration scale where inhibition reaches its midpoint) with P. falciparum strain 3D7 (setting [1]) was found to be 13.7 nM.
The compound `[Br-].[Br-].c1cc2c(s1)c(N1CCCCCC1)nc[n+]2Cc1ccc(CCc2ccc(C[n+]3cnc(N4CCCCCC4)c4sccc43)cc2)cc1` [Fa-23, 1,1’-((ethane-1,2-diylbis(4,1-phenylene))bis(methylene))bis(4-(azepan-1-yl)thieno[3,2-d]pyrimidin-1-ium) bromide] yielded a melting point of 321 to 323 °C. The IC50 in the series with P. falciparum strain 3D7 (setting [1]) turned out to be 67.8 nM.
With `c1cc2c(s1)c(N1CCCCC1)nc[n+]2Cc1ccc(-c2ccc(C[n+]3cnc(N4CCCCC4)c4sccc43)cc2)cc1` [Fa-24, 1,1’-([1,1’-biphenyl]-4,4’-diylbis(methylene))bis(4-(piperidin-1-yl)thieno[3,2-d]pyrimidin-1-ium) bromide], the half-inhibitory concentration (IC50) in the series on P. falciparum strain 3D7 (setting [1]) came to 57.8 nM. Further, the remaining activity at 25 µM at PfCK (setting [2]) stood at 57.1 ± 5.15%.
`[Br-].[Br-].c1cc2c(s1)c(N1CCCCC1)nc[n+]2Cc1ccc(CCc2ccc(C[n+]3cnc(N4CCCCC4)c4sccc43)cc2)cc1` [Fa-25, 1,1’-((ethane-1,2-diylbis(4,1-phenylene))bis(methylene))bis(4-(piperidin-1-yl)thieno[3,2-d]pyrimidin-1-ium) bromide] yielded a melting point of 314 to 316 °C. The IC50 in the series on P. falciparum strain 3D7 (setting [1]) worked out at 34.7 nM.
With `[Br-].[Br-].c1cc2c(s1)c(N1CCCC1)cc[n+]2Cc1ccc(CCCCc2ccc(C[n+]3ccc(N4CCCC4)c4sccc43)cc2)cc1` [Ff-1, 4,4’-((butane-1,4-diylbis(4,1-phenylene))bis(methylene))bis(7-(pyrrolidin-1-yl)thieno[3,2-b]pyridin-4-ium) bromide], in the series with P. falciparum strain 3D7, the “fold decrease in antimalarial activity with respect to the reference compounds BR-23 / BR-25” value is 10 fold. The results for the IC50 in the series on P. falciparum strain 3D7 (setting [1]) and at PfCK were 90.1 nM and 10900 ± 1330 nM, respectively. Also, on PfCK (setting [2]), the remaining activity at 25 µM turned out to be 47 ± 3.53%.
Compound `[Br-].[Br-].c1cc2c(N3CCCC3)nc[n+](Cc3ccc(CCCCc4ccc(C[n+]5cnc(N6CCCC6)c6ccsc65)cc4)cc3)c2s1` [Ff-3, 1,1’-((butane-1,4-diylbis(4,1-phenylene))bis(methylene))bis(4-(pyrrolidin-1-yl)thieno[2,3-d]pyrimidin-1-ium) bromide] displayed a melting point of 288 to 290 °C. Besides, in the series on P. falciparum strain 3D7, the “fold decrease in antimalarial activity with respect to the reference compounds BR-23 / BR-25” value was determined as 10 fold. The half-maximal inhibitory concentration (IC50) in the series with P. falciparum strain 3D7 (setting [1]) came out at 38.8 nM.
`c1cc2c(s1)c(N1CCCCCC1)nc[n+]2Cc1ccc(OCCOc2ccc(C[n+]3cnc(N4CCCCCC4)c4sccc43)cc2)cc1` [Ff-34, 1,1′-(((ethane-1,2-diylbis(oxy))bis(4,1-phenylene))bis(methylene))bis(4-(azepan-1-yl)thieno[3,2-d]pyrimidin-1-ium) bromide]: the 50% inhibitory concentration (IC50) in the series with P. falciparum strain 3D7 (setting [1]) came to 87.9 nM. In addition, the results for the remaining activity at 25 µM on PfCK (setting [2]) and on PfCK (read-out: residual enzyme activity) were 52.2 ± 12.4% and 52.2%, respectively.
In the case of `c1cc2c(s1)c(N1CCCCCC1)cc[n+]2Cc1ccc(-c2ccc(C[n+]3ccc(N4CCCCCC4)c4sccc43)cc2)cc1` [Fg-10, 1,1’-([1,1’-biphenyl]-4,4’-diylbis(methylene))bis(7-(azepan-1-yl)thieno[3,2-b]pyridin-4-ium) bromide], the IC50 with P. falciparum strain 3D7 (setting [1]) turned out to be 53 nM. For the same compound, on PfCK (setting [2]), the remaining activity at 25 µM was determined as 44.7 ± 8.55%.
Take `c1cc2c(s1)c(N1CCCC1)cc[n+]2Cc1ccc(-c2ccc(C[n+]3ccc(N4CCCC4)c4sccc43)cn2)nc1` [Fg-12, 4,4’-([2,2’-bipypidine]-5,5’-diylbis(methylene))bis(7-(pyrrolidin-1-yl)thieno[3,2-b]pyridin-4-ium bromide)]: the IC50 with P. falciparum strain 3D7 stood at 305 nM.
Regarding `c1cc2c(N3CCCCC3)nc[n+](Cc3ccc(-c4ccc(C[n+]5cnc(N6CCCCC6)c6ccsc65)cc4)cc3)c2s1` [Fg-30, 1,1’-([1,1’-biphenyl]-4,4’-diylbis(methylene))bis(4-(piperidin-1-yl)thieno[2,3-d]pyrimidin-1-ium) bromide], the IC50 with P. falciparum strain 3D7 (setting [1]) turned out to be 27.9 nM. The remaining activity at 25 µM at PfCK (setting [2]) stood at 54.8 ± 7.2%.
In the case of `CN(c1ccccc1)c1nc[n+](Cc2ccc(-c3ccc(C[n+]4cnc(N(C)c5ccccc5)c5sccc54)cc3)cc2)c2ccsc12.[Br-].[Br-]` [Fp-1, 1,1’-([1,1’-biphenyl]-4,4’-diylbis(methylene))bis(4-(methyl(phenyl)amino)thieno[3,2-d]pyrimidin-1-ium)bromide], the half-maximal inhibitory concentration (IC50) with P. falciparum strain 3D7 (setting [1]) worked out at 142 nM; on PfCK, 7270 ± 230 nM. The “fold decrease of antimalarial activity with respect to RSM932A” value in the series on P. falciparum strain 3D7 is “up to 10 fold”. Besides, the “fold decrease in parasite lethality with respect to BR-31” value in the series with P. falciparum strain 3D7 came out at 10 fold. Also, at PfCK (setting [2]), the remaining activity at 25 µM was determined as 12.9 ± 3.32%.
Consider `CN(c1ccc(Cl)cc1)c1nc[n+](Cc2ccc(-c3ccc(C[n+]4cnc(N(C)c5ccc(Cl)cc5)c5ccsc54)cc3)cc2)c2sccc12.[Br-].[Br-]` [Fp-8, 1,1’-([1,1’-biphenyl]-4,4’-diylbis(methylene))bis(4-((4-chlorophenyl)(methyl)amino)thieno[2,3-d]pyrimidin-1-ium) bromide], for which the IC50 with P. falciparum strain 3D7 (setting [1]) came to 282 nM; against PfCK, 4170 ± 480 nM. Moreover, the “fold decrease of antimalarial activity with respect to RSM932A” value in the series with P. falciparum strain 3D7 is reported as “up to 10 fold”. The “fold decrease in parasite lethality with respect to BR-31” value with P. falciparum strain 3D7 is on record as 10 fold. Further, at PfCK (setting [2]), the remaining activity at 25 µM stood at 8.1 ± 5.8%.
